Laboratory results as given in patent US6017958A, “Method of treating malignant tumors with thyroxine analogues having no significant hormonal activity” (Octamer, Inc., priority 1997, dated 2000).

What was measured:
MDA-MD-231 cells = test: Inhibition of tumor cell growth; type: cell-based, human; conditions: 3 days, control 0.95
Protocol: MDA-MD-231 human cancer cells were obtained from the American Tissue Culture Collection (Rockville, Md.) and maintained in the recommended growth media. Cells were grown in the presence of various concentrations of Compounds 1 and 14 for 3 days at 37° C.

MDA-MB-231 xenografts = test: MDA-MB-231 xenograft growth in nude mice; type: in vivo, human tumor in nude mice; conditions: 250 mg/kg gavage, 5 days/week; control 979.0 ± 154; p = 0.01; in mm³ (unit assumed)
Protocol: MDA-MB-231 (human mammary cancer) cells were obtained from American Type Culture Collection (Rockville, Md.) and maintained in the recommended growth media. Twenty nude mice were each inoculated subcutaneously with MDA-MB-231 cells (10^6 cells/100 μL). To one group of ten mice, DIME was administered by gavage (250 mg/kg, 10 mL/kg in corn oil) once per day, 5 days per week, for a total of 32 days. The other (control) group of ten mice was given administered vehicle only according to the same dosing schedule. Tumors were measured twice weekly using a Vernier caliper, and the mean tumor volume was determined at each time point. Comparisons between groups were made using an unpaired, two-tailed t-test and the results were analyzed using analysis of variance.
Tumorigenicity of E-ras 20 Cells in athymic nude mice was assayed as described previously. Bauer et al., 1996, "Modification of growth related enzymatic pathways and apparent loss of tumorigenicity of a ras-transformed bovine endothelial cell line by treatment with 5-iodo-6-amino-1,2-benzopyrone (INH2 BP)" Intl. J. Oncol. 8:239-252. The in vivo antitumorigenic action of DIME was assayed on athymic mice inoculated with 10^6 MDA-MB-231 cells, as in the tumorgenicity assay. […]

MDA-MB-231 cells = test: Chromosome analysis by in situ hybridization; type: cell-based, human; conditions: 1 μM
Protocol: The MDA-MB-231 cell line was obtained from ATCC (Rockville, Md., USA) and cells were cultured in T-75 flasks at 37° C. in Minimum Essential Medium-alpha, supplemented with 10% FCS. In controls, not receiving DIME, 0.1 μg/ml colcemid was added to cultures for 4 hrs prior to the collection of metaphase-blocked cells and preparation of cell spreads. […] Cells (10^7) were isolated from T-75 trypsinization for 5 min with 0.025% trypsin, and sedimented by centrifugation, resuspended and kept in 10 ml of 75 mM KC1 at 37° C. for 10 min, resedimented, and fixed in 10 ml methanol-acetic acid, with four successive changes of methanol-acetic acid. An aliquot of the final cell suspension (100 μl) was dropped on ethanol-cleaned slides and air-dried.
Human chromosome-specific probes were produced by ONCOR (Gaithersburg, Md., USA). Hybridization was accomplished by a modification of the procedure described by Pinkel et al., 1986, "Cytogentic Analysis Using Quantitative High-Sensitivity Fluorescence Hybridization," Proc. Natl. Acad. Sci. U.S.A. 83:2934-2938. The slide-mounted cells were treated with pepsin (20 μg/ml in 0.01 N HCl) at 37° C. for 10 min and then dehydrated in a 70%, 85% and 100% ethanol series, then DNA was denatured by immersion in 70% formamide, followed by 2X standard saline citrate (IX SSC is […], 0.015 M sodium citrate, pH 7.0) for 2 min. at 70° C., and dehydrated in ethanol as described above. The hybridization mixture in a 10 μl total volume consisted of 50% formamide, 2X SSC, 10% dextran sulfate, 0.5 μg herring sperm DNA, and 1-5 μg of proteinase K-treated human placental DNA. Both herring sperm DNA and human placental DNA were previously sonicated to 200-600 bp fragments, and -40 ng of digoxigeninylated probe DNA (denatured at 70° C. for 5 min) added, and incubated at 37° C. for 1 hr. This mixture was placed on slides containing the fixed cells, sealed under a coverslip, and incubated at 37° C. for 2 to 3 days. […] The slides were viewed in a Zeiss fluorescence microscope equipped with a multiple band pass filter (Chroma Technology, Brattleboro, Vt., USA) to determine the number of FISH signals in each nucleus.

## COC(=O)c1cc(I)c(Oc2ccc(OC)cc2)c(I)c1 [Compound 1, Methyl 3,5-diiodo-4-(4'-methoxyphenoxy)benzoate]
MDA-MD-231 cells; 0.5 μM
  Cells (growth): 0.20 ×10^6
MDA-MD-231 cells; 1.0 μM
  Cells (growth): 0.10 ×10^6
MDA-MD-231 cells; 2.0 μM
  Cells (growth): 0.09 ×10^6
MDA-MB-231 xenografts
  Tumor Volume Day 28 ± SEM: 430 ± 85.6
MDA-MB-231 cells; 18 hrs
  effect on chromosomes (in situ hybridization): no detectable effect
MDA-MB-231 cells; 5 days
  chromosome breakage: No evidence for chromosome breakage
MDA-MB-231 cells; 5 days, some cells
  chromosome-19 signals: about 40 chromosome-19 signals
  chromosomes per cell: over 100 chromosomes
